According to patent US9295739B2, “Folate conjugates of albumin-binding entities” (MERCK & CIE, priority 2011, dated 2016):

How the values were obtained:
[1] = log D7.4 by the shake flask method; format: physicochemical
KB tumor xenografts = experiment: Ex vivo biodistribution of [18F]FDG-AB-folate in nude mice bearing KB tumor xenografts; conditions: 2 h p.i., n = 3
Experimental: In vivo experiments were performed in female nude mice bearing KB tumor xenografts.
Animals were injected with ˜3 MBq of [^18F]FDG-AB-folate 34 via a lateral tail vein. Animals were sacrificed 2 h after radiotracer injection. Organs- and tissues were dissected and measured in the γ-counter (Wizard, PerkinElmer). The incorporated radioactivity was expressed as percentage injected dose (% ID) per gram of tissue.

For `Nc1nc2ncc(CNc3ccc(C(=O)N[C@@H](CCC(=O)NC(Cc4cn([C@@H]5OC(CO)[C@@H](O)[C@H](O)C5[18F])nn4)C(=O)N[C@@H](CCCCNC(=O)CCCc4ccc(I)cc4)C(=O)O)C(=O)O)cc3)nc2c(=O)[nH]1` (stereo partly shown) [[^18F]FDG-AB-folate], the “log D7.4 value” [1] was −3.2±0.4, the Blood (KB tumor xenografts) was 2.93 ± 0.55 % ID/g and the Bone (KB tumor xenografts) was 1.50 ± 0.24 % ID/g. It also gave a Brain (KB tumor xenografts) of 0.89 ± 0.17 % ID/g, a Feces (KB tumor xenografts) of 53.02 ± 26.52 % ID/g and a Gallbladder (KB tumor xenografts) of 83.78 ± 16.78 % ID/g. The Heart (KB tumor xenografts) was 3.20 ± 0.53 % ID/g, the Intestine (KB tumor xenografts) was 8.84 ± 7.07 % ID/g and the Kidneys (KB tumor xenografts) was 14.98 ± 1.47 % ID/g. It also gave a Liver (KB tumor xenografts) of 7.14 ± 0.78 % ID/g, a Lungs (KB tumor xenografts) of 2.44 ± 0.58 % ID/g and a Muscle (KB tumor xenografts) of 1.62 ± 0.26 % ID/g. The “Ratio Tumor/Blood” value (KB tumor xenografts) was 3.33 ± 0.59, the “Ratio Tumor/Kidneys” value (KB tumor xenografts) was 0.64 ± 0.07 and the “Ratio Tumor/Liver” value (KB tumor xenografts) was 1.34 ± 0.16. It also gave a Salivary glands (KB tumor xenografts) of 7.55 ± 0.08 % ID/g, a Spleen (KB tumor xenografts) of 0.81 ± 0.03 % ID/g and a Stomach (KB tumor xenografts) of 1.93 ± 0.51 % ID/g. It also gave a Tumor (KB tumor xenografts) of 9.51 ± 0.08 % ID/g.
